# Results taken from patent US20230141403A1 (Hoffmann-La Roche Inc., priority 2020, published 2023).
# Counter-ions that a name gives are not always drawn.
# Test system: Acinetobacter baumannii ATCC17961
# Assay: Antimicrobial susceptibility testing: 90% growth inhibitory concentration (IC90) determination
# Format: cell-based
# Conditions: 90% growth inhibitory concentration; Iso-Sensitest broth, optical density at 600 nm over 16h, 35±2° C.; read-out: AB ATCC 17961 IC90
# Experimental: Antimicrobial Susceptibility Testing:
# 90% Growth Inhibitory Concentration (IC90) Determination
# The in vitro antimicrobial activity of the compounds was determined according to the following procedure:
# The assay used a 10-points Iso-Sensitest broth medium to measure quantitatively the in vitro activity of the compounds against Acinetobacter baumannii ATCC17961 or ATCC17978.
# Stock compounds in DMSO were serially twofold diluted (e.g. range from 50 to 0.097 μM final concentration) in 384 wells microtiter plates and inoculated with 49 μl the bacterial suspension in Iso-Sensitest medium to have a final cell concentration of ˜5×10^(5) CFU/ml in a final volume/well of 50 ul/well. Microtiter plates were incubated at 35±2° C.
# Bacterial cell growth was determined with the measurement of optical density at λ=600 nm each 20 minutes over a time course of 16h. Growth inhibition was calculated during the logarithmic growth of the bacterial cells with determination of the concentration inhibiting 50% (IC50) and 90% (IC90) of the growth.
# Table 2 provides the 90% growth inhibitory concentrations (IC90) in micromoles per liter of the compounds of present invention obtained against the strain Acinetobacter baumannii ATCC17961.
row,SMILES,IC90
1,"CCS(=O)(=NC)c1ccc(Nc2nccn3c(-c4ccc(OC)c(F)c4F)cnc23)cc1Cl (stereo not drawn) [Example 24, (2-chloro-4-((3-(2,3-difluoro-4-methoxyphenyl)imidazo[1,2-a]pyrazin-s-yl)amino)phenyl)(ethyl)(methylimino)-l6-sulfanone]",0.17 µM
2,"CN=S(C)(=O)c1ccc(Nc2nccn3c(-c4ccc(OC)c(F)c4F)cnc23)cc1C (stereo not drawn) [Example 66, 3-(2,3-difluoro-4-methoxyphenyl)-N-(4-(N,S-dimethylsulfonimidoyl)-3-methylphenyl)imidazo[1,2-a]pyrazin-8-amine]",0.16 µM
3,"CN=S(C)(=O)c1ccc(Nc2nccn3c(-c4ccc(OC)c(F)c4F)cnc23)cc1C (single isomer, unassigned; (+)) [Example 21, (+)-(4-((3-(2,3-difluoro-4-methoxyphenyl)imidazo[1,2-a]pyrazin-8-yl)amino)-2-methylphenyl)(methyl)(methylimino)-l6-sulfanone]",0.26 µM

# Same assay, conditions: Acinetobacter baumannii, ATCC17961, 16 h, 90% growth inhibitory concentration; Iso-Sensitest broth, optical density at 600 nm over 16h, 35±2° C.; read-out: AB ATCC 17961 IC90
row,SMILES,IC90
1,"O=C1CCCN1c1ccc(Nc2nccn3c(-c4ccc(OC(F)F)cc4)cnc23)cc1Cl [Example 94, 1-(2-chloro-4-((3-(4-(difluoromethoxy)phenyl)imidazo[1,2-a]pyrazin-8-yl)amino)phenyl)pyrrolidin-2-one]",0.12 µM
2,"COc1ccc(-c2cnc3c(Nc4ccc(N5CCCC5=O)cc4)nccn23)cc1F [Example 48, 1-(4-((3-(3-fluoro-4-methoxyphenyl)imidazo[1,2-a]pyrazin-8-yl)amino)phenyl)pyrrolidin-2-one]",0.076 µM
3,"CCc1cc(Nc2nccn3c(-c4ccc(OC)c(F)c4F)cnc23)ccc1S(=O)(=O)N1CCN(C(=O)C[N+](C)(C)C)CC1 [Example 110, 2-(4-((4-((3-(2,3-difluoro-4-methoxyphenyl)imidazo[1,2-a]pyrazin-8-yl)amino)-2-ethylphenyl)sulfonyl)piperazin-1-yl)-N,N,N-trimethyl-2-oxoethan-1-aminium iodide]",0.33 µM
4,"CCc1cc(Nc2nccn3c(-c4ccc(OC)c(F)c4F)cnc23)ccc1S(=O)(=O)N1CCN(C(=O)[C@@H]2CCCN2)CC1 [Example 105, (S)(4-(4-((3-(2,3-difluoro-4-methoyphenyl)imidazo[1,2-a]pyrazin-8-yl)amino)-2-ethylphenyl)sulfonyl)piperazin-1-yl)(pyrrolidin-2-yl)methanone hydrochloride]",0.31 µM
5,"CCc1cc(Nc2nccn3c(-c4ccc(OC)c(F)c4F)cnc23)ccc1S(=O)(=O)N1CCN(C(=O)CN(C)C)CC1 [Example 104, 1-(4-((4-((3-(2,3-difluoro-4-methoxyphenyl)imidazo[1,2-a]pyrazin-8-yl)amino)-2-ethylphenyl)sulfonyl)piperazin-1-yl)-2-(dimethylamino)ethan-1-one]",0.34 µM
6,"CN=S(=O)(CCCN)c1ccc(Nc2nccn3c(-c4ccc(OC)c(F)c4F)cnc23)cc1C (stereo not drawn) [Example 72, N-(4-(3-amino-N-methylpropylsulfonimidoyl)-3-methylphenyl)-3-(2,3-difluoro-4-methoxyphenyl)imidazo[1,2-a]pyrazin-8-amine]",0.12 µM
7,"COc1ccc(-c2cnc3c(Nc4ccc5c(c4)CCC5=O)nccn23)c(F)c1F [Example 125, 5-[[3-(2,3-difluoro-4-methoxy-phenyl)imidazo[1,2-a]pyrazin-8-yl]amino]indan-1-one]",0.36 µM
8,"CCc1cc(Nc2nccn3c(-c4ccc(OC)c(F)c4F)cnc23)ccc1S(=O)(=O)N1CCNCC1 [Example 103, 3-(2,3-difluoro-4-methoxyphenyl)-N-(3-ethyl-4-(piperazin-1-ylsulfonyl)phenyl) imidazo[1,2-a]pyrazin-8-amine hydrochloride]",0.5 µM
9,"COc1ccc(-c2cnc3c(Nc4ccc(S(=O)(=O)NCCOCCN(C)C)c(C)c4)nccn23)c(F)c1F [Example 99, 4-((3-(2,3-difluoro-4-methoxyphenyl)imidazo[1,2-a]pyrazin-8-yl)amino)-N-(2-(2-(dimethylamino)ethoxy)ethyl)-methylbenzene sulfonamide]",0.28 µM
10,"COc1ccc(-c2cnc3c(Nc4ccc5c(c4)CCC5NCCN)nccn23)c(F)c1F (stereo not drawn) [Example 6, N1-(2-aminoethyl)-N5-[3-(2,3-difluoro-4-methoxy-phenyl)imidazo[1,2-a]pyrazin-8-yl]indane-1,5-diamine formic acid]",0.3 µM
11,"CN=S(=O)(c1ccc(Nc2nccn3c(-c4ccc(OC)c(F)c4F)cnc23)cc1C)C1CCN(C(=O)[C@@H]2C[C@@H](O)CN2)CC1 (stereo partly drawn) [Example 73, (4-(4-((3-(2,3-difluoro-4-methoxyphenyl)imidazo[1,2-a]pyrazin-8-yl)amino)-N,2-dimethylphenylsulfonimidoyl)piperidin-1-yl)((2S,4R)-4-hydroxypyrrolidin-2-yl)methanone]",0.33 µM
12,"COc1ccc(-c2cnc3c(Nc4ccc(N5CCC(CN)CC5)c(C)c4)nccn23)c(F)c1F [Example 113, N-(4-(4-(aminomethyl)piperidin-1-yl)-3-methylphenyl)-3-(2,3-difluoro-4-methoxyphenyl) imidazo [1,2-a]pyrazin-8-amine hydrochloride]",0.37 µM
13,"CCc1cc(Nc2nccn3c(-c4ccc(OC)c(F)c4F)cnc23)ccc1N1CCC(CN)CC1 [Example 114, N-(4-(4-(aminomethyl)piperidin-1-yl)-3-ethylphenyl)-3-(2,3-difluoro-4-methoxyphenyl) imidazo [1,2-a]pyrazin-8-amine hydrochloride]",0.81 µM
14,"CCc1cc(Nc2nccn3c(-c4ccc(OC)c(F)c4F)cnc23)ccc1S(=O)(=O)N1CCN(C(=O)[C@@H]2CCNC2)CC1 [Example 107, (R)-(4-(4-((3-(2,3-difluoro-4-methoxyphenyl)imidazo[1,2-a]pyrazin-8-yl)amino)-2-ethylphenyl)sulfonyl) piperazin-1-yl)(pyrrolidin-3-yl)methanone hydrochloride]",0.2 µM
15,"COc1ccc(-c2cnc3c(Nc4ccc(Cn5ccnc5)c(C)c4)nccn23)c(F)c1F [Example 118, 3-(2,3-difluoro-4-methoxy-phenyl)-N-[4-(imidazol-1-ylmethyl)-3-methyl-phenyl]imidazo[1,2-a]pyrazin-8-amine]",0.12 µM
16,"COc1ccc(-c2cnc3c(Nc4ccc([S@@](C)(=O)=NCCCN)c(C)c4)nccn23)c(F)c1F [Example 28, (+)-((3-aminopropyl)imino) (4-((3-(2,3-difluoro-4-methoxyphenyl)imidazo[1,2-a]pyrazin-8-yl)amino)-2-methylphenyl) (methyl)-16-sulfanone]",0.048 µM
17,"COc1ccc(-c2cnc3c(Nc4ccc(S(=O)(=O)NCCOCCN)c(C)c4)nccn23)c(F)c1F [Example 100, N-(2-(2-aminoethoxy)ethyl)-4-((3-(2,3-difluoro-4-methoxyphenyl)imidazo[1,2-a]pyrazin-8-yl)amino)-2-methylbenzenesulfonamide hydrochloride]",0.12 µM
18,"CCc1cc(Nc2nccn3c(-c4ccc(OC)c(F)c4F)cnc23)ccc1S(=O)(=O)N1CCN(C(=O)C2CCNCC2)CC1 [Example 108, (4-((4-((3-(2,3-difluoro-4-methoxyphenyl)imidazo[1,2-a]pyrazin-8-ylamino)-2-ethylphenyl)sulfonyl)piperazin-1-yl)(piperidin-4-yl)methanone hydrochloride]",0.22 µM
19,"CCc1cc(Nc2nccn3c(-c4ccc(OC)c(F)c4F)cnc23)ccc1S(=O)(=O)N1CCN(C(=O)C2(O)CCNCC2)CC1 [Example 109, (4-((4-((3-(2,3-difluoro-4-methoxyphenyl)imidazo [1,2-alpyrazin-8-yl)amino)-2-ethylphenyl)sulfonyl)piperazin-1-yl)(4-hydroxypiperidin-4-yl)methanonbydrochloride]",0.64 µM
20,"COc1ccc(-c2cnc3c(Nc4ccc(NC(C)=O)c(Cl)c4)nccn23)cc1 [Example 39, N-(2-chloro-4-((3-(4-methoxyphenyl)imidazo[1,2-a]pyrazin-8-yl)amino)phenyl)acetamide]",0.1 µM
21,"CN=S(C)(=O)c1ccc(Nc2nccn3c(-c4ccc(OC)c(F)c4F)cnc23)cc1 (stereo not drawn) [Example 69, 3-(2,3-difluoro-4-methoxyphenyl)-N-(4-(N,S-dimethylsulfonimidoyl)phenyl)imidazo[1,2-a]pyrazin-8-amine]",0.2 µM
22,"O=C1NCCN1c1ccc(Nc2nccn3c(-c4ccc(OC(F)F)cc4)cnc23)cc1 [Example 3, 1-[4-[[3-[4-(difluoromethoxy)phenyl]imidazo[1,2-a]pyrazin-8-yl]amino]phenyl]imidazolidin-2-one]",0.72 µM

# Same assay, conditions: Acinetobacter baumannii, ATCC17961, 16 h, read-out: AB ATCC 17961 IC90 (uM)
row,SMILES,IC90
1,"COc1ccc(-c2cnc3c(Nc4ccc(S(C)(=O)=NCCCN)cc4)nccn23)c(F)c1F (stereo not drawn) [Example 68, N-[4-[N-(3-aminopropyl)-S-methyl-sulfonimidoyl]phenyl]-3-(2,3-difluoro-4-methoxy-phenyl)imidazo[1,2-a]pyrazin-8-amine; formic acid]",0.43 µM
2,"COc1ccc(-c2cnc3c(Nc4ccc(N5CCC(CN)CC5)cc4)nccn23)c(F)c1F [Example 112, N-(4-(4-(aminomethyl)piperidin-1-yl)phenyl)-3-(2,3-difluoro-4-methoxyphenyl)imidazo[1,2-a]pyrazin-8-amine hydrochloride]",0.56 µM
